Reference: patent publication US8129340B2, “Inhibitors of protein phosphatase 1, GADD34 and protein phosphatase 1/GADD34 complex, preparation and uses thereof” (Institut Gustave Roussy, priority 2006, dated 2012)
Peptide text beside a SMILES is read from it. * marks the point of attachment. Cbz = O=C(OCc1ccccc1)*; CH2F = FC*

Legend:
calreticulin [1] = experiment: Calreticulin exposure by immunofluorescence staining and flow cytometry, CT26 cells (peptide test); format: cell-based, murine; settings: 2 hours
Protocol: (§1) HCT116 cells (FIG. 7A) or CT26 cells (FIG. 7B) were cultured in complete mediums supplemented with 10% fetal calf serum alone or in the presence of the control peptide (VKKKKIKREIKI-lkaravafsekv) (SEQ ID NO: 17) or the PP1/GADD34 inhibitory peptide (VKKKKIKREIKI-lkarkvrfsekv, SEQ ID NO: 4. denominated PP1 peptide) for 2 hours. Cells were washed twice with PBS and fixed in PFA (4% w/v) for 5 min. Cells were stained with an antibody against calreticulin (pAb from Abeam, ab2907) at 1:200 dilution or isotype control, in staining buffer (PBS, 1% FCS) for 30 min on ice, followed by washing. An anti-rabbit Alexa fluor 488 immunoglobulin conjugate (Molecular Probes-Invitrogen) diluted at 1:500 was added for an additional 30 min on ice before washing and analysed by flow cytometry (FACScan, Becton Dickinson). Propidium Iodide (50 μg/ml, Becton Dickinson) was added to the samples to label and exclude permeabilized (dead) cells.

calreticulin [2] = experiment: Calreticulin exposure by immunofluorescence staining and flow cytometry, HCT116 cells; format: cell-based, human; settings: 2 hours
Protocol: as §1

CT26 tumour cells [3] = experiment: Anti-tumour vaccination: dying treated CT26 cells injected in one flank, later challenge with live tumour cells; format: in vivo, BALB/c mice; settings: for induction of immunogenic cell death by the inhibitor alone: without cell death inducer
CT26 tumours [4] = experiment: Intratumoural treatment of established CT26 tumours in immunocompetent mice; format: in vivo, BALB/c mice (wild type)
cell surface CRT = experiment: Fluorescence detection of cell surface CRT on CT26 cells (cytofluorometry); format: cell-based, murine; settings: agent alone; for induction of ecto-CRT and/or ecto-Erp57: tumour cells
Protocol: FIG. 1SA, FIG. 1SB: Kinetics of CRT exposure. CT26 cells were treated with mitoxantrone for the indicated period, followed by immunofluorescence staining with a CRT-specific antibody and cytofluorometric analysis.
FIG. 2E: Correlation between CRT exposure and immunogenicity. The surface exposure of CRT was determined by immunofluorescence cytometry while gating on viable (propidium iodine-negative) cells (inserts) and was correlated with the immunogenicity of cell death (as determined in FIG. 1). CO, control; Tg, thapsigargin; Tu, tunicamycin.
FIG. 5E: Kinetics of CRT exposure determined by FACS analysis after incubation of cells with the indicated agents.
FIG. 5F-FIG. 5G: PP1/GADD34 inhibitors render cell immunogenic via CRT. Tumour cells were first transfected with a control siRNA or a CRT-specific siRNA and then treated in vitro with etoposide, alone or in combination with PP1/GADD34 inhibitors. […] The results represent the % of tumour free mice (comprising a total of 12 to 18 mice per group).
CT26 cells (on a glass slide or in 12-well plates) were first washed with FACS buffer (1×PBS, 5% fetus bovine serum, and 0.1% sodium azide) and then incubated with rabbit anti-mouse CRT antibody (1:100, Stressgen) in FACS buffer at 4° C. for 30 min. Cells reacted with anti-rabbit IgG (H+L) Alexa fluor 488-conjugates (1:500) in FACS buffer at 4° C. for 30 min. After washing three times with FACS buffer, surface CRT was detected by cytofluorometric analysis on a FACS Vantage. In some experiments, cells were fixed with 4% paraformaldehyde, counterstained with Hoechst (2 μM; Sigma), followed by fluorescence microscopic assessment with a Leica IRE2 microscope equipped with a DC300F camera.

CRT [5] = experiment: CRT exposure on tumour cell lines of human origin (HeLa, A549, HCT116); format: cell-based
CRT [6] = experiment: CRT exposure on tumour cell lines of murine origin (MCA205, B16F10, J558); format: cell-based
CT26 tumours [7] = experiment: Intratumoural treatment of established CT26 tumours in immunodeficient mice; format: in vivo, athymic nu/nu Balb/c mice
CT26 tumour cells [8] = experiment: Local immune response: tumour cells injected into foot pad, IFN-γ secretion by draining popliteal lymph node cells (ELISA); format: in vivo, Balb/c mice; settings: cells injected into the foot pad
Protocol: FIG. 4B: Priming of T cell responses depending on CRT. CT26 tumour cells were left untransfected or transfected with the indicated siRNAs, then treated with medium alone, mitomycin C or mitoxantrone and injected into the right food pad of Balb/c mice. Five days later, mononuclear cells from the draining popliteal lymph nodes were challenged with freeze-thawed CT26 cells, and IFN-γ secretion was assessed at 72 hrs.
FIG. 4C: Exogenous supply of CRT enhances the immunogenicity of CRT-negative dying cells. CT26 cells lacking CRT expression after depletion of CRT with a siRNA and mitoxantrone treatment or after mitomycin treatment were coated with rCRT (inserts) and then injected in the food pad, followed by assessment of the IFN-γ secretion by cells from the draining lymph nodes as in FIG. 4B.
(§2) Tumours were evaluated weekly, using a caliper.

CT26 colon cancer cells = experiment: In vivo anti-cancer vaccination: treated tumour cells in one flank and live tumour cells in opposite flank simultaneously; parameters: species or system BALB/c mice
Protocol: FIG. 4A: In vivo anti-cancer vaccination depends on CRT. CT26 colon cancer cells were transfected with the indicated siRNAs, then treated with rCRT and/or mitoxantrone (as in FIG. 3D) and the anti-tumour response was measured by simultaneously challenging BALB/c mice with mitoxantrone treated tumour cells in one flank and untreated live tumour cells in the opposite flank.
FIG. 4D: CRT-mediated amelioration of the immune response against etoposide-treated tumour cells. CT26 cells were treated for 24 h with etoposide (or PBS) and rCRT was optionally absorbed to the cell surface (inserts), followed by simultaneous injection of the etoposide ±rCRT-treated tumour cells and live tumour cells in opposite flanks and monitoring of tumour growth.
as §2

CT26 cells = experiment: Phagocytosis of CT26 tumour cells by dendritic cells (FACS, double positive cells); format: cell-based, BALB/c mice; settings: cells transfected with siRNA
Protocol: FIG. 3A, FIG. 3B: Correlation between tumour cell phagocytosis and CRT exposure. Tumour cells labelled with Cell Tracker Green were cultured with CD11c-expressing DC and the percentage of DC taking up tumour cells was determined (A) and correlated with the CRT surface exposure (B), measured as in FIG. 2E.
Mitoxantrone-treated or control cells were incubated with a blocking chicken anti-CRT antibody, followed by detection of phagocytosis by CD.
Cells were transfected with the indicated siRNAs and optionally treated with rCRT, followed by immunoblot (FIG. 3D) detection of surface CRT (FIG. 3E) and phagocytosis by DC (FIG. 3F). Results are triplicates (X±SD) and representative of three independent experiments. * denotes statistically significant differences using the Student t′ test at p<0.001.
BM cells were flushed from the tibias and femurs of BALB/c mice with culture medium composed of RPMI 1640 medium (Invitrogen Life Technologies) supplemented with 10% heat-inactivated FBS (Invitrogen), sodium pyruvate, 50 μM 2-ME (Sigma), 10 mM HEPES (pH 7.4), and penicillin/streptomycin (Invitrogen). After one centrifugation, BM cells were resuspended in Tris-ammonium chloride for 2 min to lyse RBC. After one more centrifugation, BM cells (1×10^6 cells/ml) were cultured in medium supplemented with 100 ng/ml recombinant mouse FLT3 ligand (R&D systems) in 6-well plates (Costar Corning). After 7 days, the non-adherent and loosely adherent cells were harvested with Versene, washed and transferred in 12-well plates (1.5×10^6 cells/plate) for cocultures with tumour cells.
In 12-well plates, […] adherent CT26 cells were labelled with Celltracker Green (Calbiochem) and then incubated with drugs. In some experiments viable CT26 were coated with 2 μg/10^6 cells of chicken anti-CRT antibody (ABR affinity bioreagents) or an isotype control for 30 min prior to washing and feeding to dendritic cells Cs. Alternatively CT26 cells were coated with 2 μg/10^6 cells of rCRT on ice for 30 min and washed twice prior to addition to dendritic cells. Cells were then harvested, washed three times with medium supplemented with FBS and cocultured with immature DC for 2 hours at a ratio of 1:1 and 1:5. At the end of the incubation, cells were harvested with versene, pooled with non-adherent cells present in the supernatant, washed and stained with CD11c-FITC antibody. Phagocytosis was assessed by FACS analysis of double positive cells. Phagocytic indexes refer to the ratio between values obtained at 4° C. and values obtained at 37° C. of co-incubation between DC and tumour cells.

[9] = dying CT26 cells treated with agent injected into one flank, live tumour cells in opposite flank 8 days later

## VKKKKIKREIKI-lkaravafsekv (VKKKKIKREIKILKARAVAFSEKV; Artificial sequence including a fragment of GADD34 and a translocation motif) [mutant control peptide]
Calreticulin [1]
  exposure of calreticulin, CT26 cells: did not induce calreticulin exposure
Calreticulin [2]
  exposure of calreticulin, HCT116 cells: did not induce calreticulin exposure

## C/C=C(/C)C(=O)O[C@H]1C(C)=C2[C@H]([C@@H]1OC(=O)CCCCCCC)[C@@](C)(OC(C)=O)C[C@H](OC(=O)CCC)[C@@]1(O)[C@H]2OC(=O)[C@@]1(C)O [thapsigargin]
CT26 tumour cells [3]; [9]
  immunogenicity of cell death (protection against tumour growth, anti-tumour vaccination): failed to induce immunogenic apoptosis

## O=C(/C=C/c1ccccc1)NC(NC(=S)Nc1cccc2cccnc12)C(Cl)(Cl)Cl (centres unmarked) [salubrinal]
CT26 tumour cells [3]
  induction of immunogenic cell death by the inhibitor alone: not sufficient to induce immunogenic cell death
CT26 tumours [4]; intratumoural injection with etoposide or mitomycin C
  therapeutic effect combined with a cell death inducer (etoposide or mitomycin C), immunocompetent mice: stable disease or complete tumour regression
CT26 tumours [4]; single intratumoural injection, 14-day-old CT26 tumours
  therapeutic effect of single agent on established tumours, immunocompetent mice: no major therapeutic effect
Cell surface CRT
  induction of CRT exposure at the cell surface: efficiently induced
CRT [5]
  CRT exposure on human tumour cell lines: induced CRT exposure
CRT [6]
  CRT exposure on murine tumour cell lines: induced CRT exposure
CT26 tumours [7]; single intratumoural injection
  therapeutic effect of single agent on established tumours, nu/nu mice: no major therapeutic effect

## CCOc1ccc(-c2nc3ccc(-c4nc5ccc(N6CCN(C)CC6)cc5[nH]4)cc3[nH]2)cc1 [Hoechst 33342]
CT26 tumour cells [3]; [9]
  immunogenicity of cell death (protection against tumour growth, anti-tumour vaccination): failed to induce immunogenic apoptosis

## 5′-rCrCrGrCUrGrGrGUrCrGrArAUrCrRrArATT-3′ [CRT-specific siRNA]
CT26 tumour cells [8]
  immunogenicity of mitoxantrone-treated CT26 cells (interferon-γ production by T cells from popliteal lymph node): compromised the immunogenicity of mitoxantrone-treated CT26 cells
CT26 colon cancer cells; cells injected into the flank of Balb/c mice
  immunogenicity of mitoxantrone-treated CT26 cells (efficacy of anti-tumour vaccination): compromised the immunogenicity of mitoxantrone-treated CT26 cells
CT26 cells
  phagocytosis of anthracyclin-treated tumour cells by DC after siRNA knockdown of CRT: suppressed the phagocytosis of anthracyclin-treated tumour cells

## C[C@H]1CCC/C=C/[C@@H]2C[C@H](O)C[C@H]2[C@H](O)/C=C/C(=O)O1 [brefeldin, brefeldin A]
CT26 tumour cells [3]; [9]
  immunogenicity of cell death (protection against tumour growth, anti-tumour vaccination): failed to induce immunogenic apoptosis

## CO[C@@]12[C@H](COC(N)=O)C3=C(C(=O)C(C)=C(N)C3=O)N1C[C@@H]1N[C@@H]12 [mitomycin C]
CT26 tumour cells [3]; mouse, in vivo
  immunogenicity of cell death (protection against tumour growth, anti-tumour vaccination): failed to induce immunogenic apoptosis
CT26 tumours [4]; mouse, in vivo
  therapeutic effect of single agent on established tumours, immunocompetent mice: no major therapeutic effect
Cell surface CRT
  induction of CRT exposure at the cell surface: cannot promote CRT exposure on tumor cell surface
  induction of ecto-CRT and/or ecto-Erp57: fail to induce ecto-CRT and/or ecto-Erp57
CT26 tumours [7]; mouse, in vivo
  therapeutic effect of single agent on established tumours, nu/nu mice: no major therapeutic effect

## CC[C@@]1(O)C(=O)OCc2c1cc1n(c2=O)Cc2cc3ccccc3nc2-1 [camptothecin]
CT26 tumour cells [3]; [9]
  immunogenicity of cell death (protection against tumour growth, anti-tumour vaccination): failed to induce immunogenic apoptosis

## COC[C@@H]([C@H](O)[C@H](O)C(=O)NCC[C@H](C)c1nc(/C=C/C[C@@H]2O[C@]3(C[C@@H](O)[C@@H]2C)O[C@H]([C@H](C[C@H](O)[C@H](C)[C@H](O)[C@H](C)/C=C(C)/C(C)=C/C=C/C(C)=C\C#N)OC)[C@H](OP(=O)(O)O)C3(C)C)co1)N(C)C [calyculin A]
CT26 tumour cells [3]
  induction of immunogenic cell death by the inhibitor alone: not sufficient to induce immunogenic cell death
Cell surface CRT
  induction of CRT exposure at the cell surface: efficiently induced

## COc1cc([C@@H]2c3cc4c(cc3[C@@H](O[C@@H]3O[C@@H]5CO[C@@H](C)O[C@H]5[C@H](O)[C@H]3O)[C@H]3COC(=O)[C@H]23)OCO4)cc(OC)c1O [etoposide]
CT26 tumour cells [3]; [9]
  immunogenicity of cell death (protection against tumour growth, anti-tumour vaccination): failed to induce immunogenic apoptosis
CT26 colon cancer cells; sham-coated cells treated with etoposide
  immunogenicity of sham-coated etoposide-treated cells: poorly immunogenic
CT26 tumours [4]; mouse, in vivo
  therapeutic effect of single agent on established tumours, immunocompetent mice: no major therapeutic effect
Cell surface CRT
  induction of ecto-CRT and/or ecto-Erp57: fail to induce ecto-CRT and/or ecto-Erp57
CT26 tumours [7]; mouse, in vivo
  therapeutic effect of single agent on established tumours, nu/nu mice: no major therapeutic effect

## CCCCCCCCCCCCC/C=C/[C@@H](O)[C@H](CO)NC(C)=O [C2 ceramide, C2-ceramide]
CT26 tumour cells [3]; [9]
  immunogenicity of cell death (protection against tumour growth, anti-tumour vaccination): failed to induce immunogenic apoptosis

## CC(=O)[C@]1(O)Cc2c(O)c3c(c(O)c2[C@@H](O[C@H]2C[C@H](N)[C@H](O)[C@H](C)O2)C1)C(=O)c1ccccc1C3=O [idarubicin]
CT26 tumour cells [3]; [9]
  immunogenicity of cell death (protection against tumour growth, anti-tumour vaccination): elicited immunogenic cell death

## COC(=O)C[C@H](NC(=O)[C@H](C)NC(=O)[C@@H](NC(=O)OCc1ccccc1)C(C)C)C(=O)CF [Z-VAD-fmk] (Cbz-Val-Ala-Asp(OMe)-CH2F)
CT26 tumour cells [3]; combined with doxorubicin
  effect on immunogenicity of doxorubicin-elicited cell death: reduces the immunogenicity of doxorubicin-elicited cell death

## tunicamycin
CT26 tumour cells [3]; [9]
  immunogenicity of cell death (protection against tumour growth, anti-tumour vaccination): failed to induce immunogenic apoptosis
